Data as given in article PMC7421900, “Structural, in silico, and functional analysis of a Disabled-2-derived peptide for recognition of sulfatides” (Scientific Reports, 2020).
Substitutions are numbered along the chain they refer to.

How the values were obtained:
Dab2 SBP [1] = molecular target: T1, Dab2 SBP (Homo sapiens, UniProt P98082, Y38A); experiment: SPR, L1 sensorchip, sulfatide liposomes captured; assay type: binding; settings: apparent KD; peptide 1-80 µM over 100-nm DPPC:DPPE:cholesterol:sulfatide (1:1:1:4) liposomes; pH 7.4, 100 mM NaCl, room temperature; brain sulfatides of mixed acyl chains
T1 construct: pGEX6P1; vector residues GPLGS remain at N-terminus of cleaved peptide
T1 sequence (P98082 24-58 Y38A): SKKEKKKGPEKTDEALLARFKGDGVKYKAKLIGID

Dab2 SBP [2] = molecular target: T2, Dab2 SBP (Homo sapiens, UniProt P98082); experiment: SPR, L1 sensorchip, sulfatide liposomes captured; assay type: binding; settings: apparent KD; peptide 1-80 µM over 100-nm DPPC:DPPE:cholesterol:sulfatide (1:1:1:4) liposomes; pH 7.4, 100 mM NaCl, room temperature; brain sulfatides of mixed acyl chains
T2 construct: pGEX6P1; vector residues GPLGS remain at N-terminus of cleaved peptide
T2 sequence (P98082 24-58): T1 sequence (P98082 24-58 Y38A) with A15Y

Kd (Dab2 SBP [1]): 77 ± 6.6 µM | Kd (Dab2 SBP [2]): 49.8 ± 5.4 µM
Substance: sulfatide
